{
  "source": "paper PMC4176394",
  "about": "(Journal of Natural Products, 2014)",
  "key": {"[1]": {"test_system": "MDA-MB-435 (melanoma) cancer cell line", "assay": "Cytotoxicity assay, MDA-MB-435 cells", "assay_type": "cell-based, human", "settings": "for pIC50: Homo sapiens, MDA-MB-435, 72 h, read-out: IC50 values, MDA-MB-435; for factor by which activity is reduced relative to compound 5: MDA-MB-435 cells, versus 5"}, "[2]": {"test_system": "HT-29 (colon) cancer cell line", "assay": "Cytotoxicity assay, HT-29 cells", "assay_type": "cell-based, human", "settings": "for pIC50: Homo sapiens, HT-29, 72 h, read-out: IC50 values, HT-29"}, "[3]": {"assay": "Stability in solution", "assay_type": "physicochemical", "settings": "CDCl3"}},
  "note": "pIC50: −log10 of the molar value.",
  "data": [
    {"smiles": "COc1cc(O)c(Cl)c2c1C(=O)O[C@@H](C)CC[C@@H](O)CC/C=C\\C(=O)C2", "note": "[Compound 9, greensporone E]", "values": [
      {"measurement": "pIC50", "setting": "[1]", "value": "< 4.70"},
      {"measurement": "pIC50", "setting": "[2]", "value": "< 4.70"}
    ]},
    {"smiles": "COc1cc(O)c(Cl)c2c1C(=O)O[C@@H](C)CC[C@@H](O)CCCCC(=O)C2", "note": "[Compound 11, 8,9-dihydrogreensporone D]", "values": [
      {"measurement": "pIC50", "setting": "[1]", "value": "< 4.70"},
      {"measurement": "pIC50", "setting": "[2]", "value": "< 4.70"}
    ]},
    {"smiles": "COc1cc(O)cc2c1C(=O)O[C@@H](C)CC[C@H]1CC[C@H](CC(=O)C2)O1", "note": "[Compound 14, greensporone G]", "values": [
      {"measurement": "pIC50", "setting": "[1]", "value": "< 4.70"},
      {"measurement": "pIC50", "setting": "[2]", "value": "< 4.70"}
    ]},
    {"smiles": "COc1cc(O)cc2c1C(=O)O[C@@H](C)CC[C@@H](O)CC/C=C/C(=O)C2", "note": "[Compound 10, dechlorogreensporone D]", "values": [
      {"measurement": "factor by which activity is reduced relative to compound 5", "setting": "[1]", "value": "~4"}
    ]},
    {"smiles": "COc1cc(O)c(Cl)c2c1C(=O)O[C@@H](C)CC[C@@H](O)CC/C=C/C(=O)C2", "note": "[Compound 8, greensporone D]", "values": [
      {"measurement": "stability in solution", "setting": "[3]", "value": "converted to 12"}
    ]},
    {"smiles": "COc1cc(O)c(Cl)c2c1C(=O)O[C@@H](C)CCC(=O)CC/C=C\\C(=O)C2", "note": "[Compound 2, greensporone B]", "values": [
      {"measurement": "pIC50", "setting": "[1]", "value": "< 4.70"},
      {"measurement": "pIC50", "setting": "[2]", "value": "< 4.70"}
    ]},
    {"smiles": "COc1cc(O)c(Cl)c2c1C(=O)O[C@@H](C)CCC(=O)CCCCC(=O)C2", "note": "[Compound 3, 8,9-dihydrogreensporone A]", "values": [
      {"measurement": "pIC50", "setting": "[1]", "value": "< 4.70"},
      {"measurement": "pIC50", "setting": "[2]", "value": "< 4.70"}
    ]},
    {"smiles": "COc1cc(O)c(Cl)c2c1C(=O)O[C@@H](C)CCC(=O)CC/C=C/C(=O)C2", "note": "[Compound 1, greensporone A]", "values": [
      {"measurement": "factor by which activity is reduced relative to compound 5", "setting": "[1]", "value": "~5"}
    ]},
    {"smiles": "C[C@H]1CCCCC/C=C/C(=O)Cc2cc(O)cc(O)c2C(=O)O1", "note": "[Compound 6, O-desmethylgreensporone C]", "values": [
      {"measurement": "factor by which activity is reduced relative to compound 5", "setting": "[1]", "value": 5},
      {"measurement": "factor by which activity is reduced relative to compound 5", "setting": "[2]; HT-29 cells, versus 5", "value": 2}
    ]},
    {"smiles": "COc1cc(O)cc2c1C(=O)O[C@@H](C)CC[C@H]1CC[C@@H](CC(=O)C2)O1", "note": "[Compound 13, dechlorogreensporone F]", "values": [
      {"measurement": "pIC50", "setting": "[1]", "value": "< 4.70"},
      {"measurement": "pIC50", "setting": "[2]", "value": "< 4.70"}
    ]},
    {"smiles": "COc1cc(O)cc2c1C(=O)O[C@@H](C)CCC(=O)CC/C=C/C(=O)C2", "note": "[Compound 4, dechlorogreensporone A]", "values": [
      {"measurement": "factor by which activity is reduced relative to compound 5", "setting": "[1]", "value": "~5"}
    ]},
    {"smiles": "COc1cc(O)cc2c1C(=O)O[C@@H](C)CCCCCCCC(=O)C2", "note": "[Compound 7, 8,9-dihydrogreensporone C]", "values": [
      {"measurement": "pIC50", "setting": "[1]", "value": "< 4.70"},
      {"measurement": "pIC50", "setting": "[2]", "value": "< 4.70"}
    ]}
  ]
}
